Measured values: patent publication US9101603B2, “Targeting of CYP1B1 in the treatment of head and neck cancer and lung cancer” (Institute for Cancer Research, priority 2010, dated 2015)

Legend:
Type in all cases: cell-based
MSK-Leuk1 cells [1] = assay: Cell motility assay (scratch gap closure, 16 h), vector- or CYP1B1 shRNA-expressing cells; settings: 1 nM E2, vector- and CYP1B1 shRNA-expressing MSK-Leuk1 cells
Description: (§1) For all the experiments that involved estradiol (E2) exposure, MSK-Leuk1 cells were cultured in phenol red-free and serum-free DermaLife® K Medium (Lifeline Cell Technology, Walkersville, Md.). SCC cells were cultured in their respective media with no phenol red, supplemented with charcoal-stripped serum (Gibco, Carlsbad, Calif.). Cells were incubated for 48 h to remove endogenous estrogens and then plated at 70% confluence. After 24 h, the medium was replaced with either control medium containing vehicle (0.01% ethanol) or medium supplemented with 1 nM E2 (Sigma-Aldrich, St. Louis, Mo.). Cells were harvested after the appropriate treatment period and analyzed.
Cell motility assay. MSK-Leuk1 cells, expressing either vector or CYP1B1 shRNA, were cultured in phenol red-free and serum-free medium for 48 h and then plated at 70% confluence. After 24 h, the cells were treated with either vehicle or E2 (1 nM) in triplicate, as described above. […] The area devoid of cells was measured on every image using MetaMorph 7.0 (Molecular Devices, Inc., Sunnyvale, Calif.). The gap closure percentages were calculated as (area at 0 h−area at 16 h)/(area at 0 h).
In addition, a time-lapse movie capturing the process of gap closure in vector-expressing MSK-Leuk1 cells was obtained. […] The percentage of proliferating cells (those rounded up for cell division) was counted in this representative area.

MSK-Leuk1 cells [2] = assay: Apoptosis assay (Guava Nexin kit, annexin V positive cells); settings: 72 h; for decrease of apoptosis by exposure to E2: 1 nM E2; for effect on the E2-mediated decrease in apoptosis: fulvestrant 1 μM added to 1 nM E2
Description: as §1
Apoptosis assay. Apoptosis was assessed using the Guava Nexin kit (Millipore, Billerica, Mass.). Fifty thousand cells were plated per well in 6-well plates. After the appropriate treatment, floating cells were collected, combined with attached cells following trypsinization, and resuspended in DermaLife® K Medium (Lifeline Cell Technology, Walkersville, Md.) supplemented with 5% FBS. The cell suspension (100 μl) was incubated with 100 μl of Guava® Nexin Reagent for 20 min, according to the manufacturer's instructions. Two thousand cells were analyzed from each sample using the Guava® EasyCyte™ system, and the resulting data were expressed as a percentage of apoptotic cells (annexin V positive cells/total number of cells counted).

MSK-Leuk1 cells [3] = assay: Cell proliferation (total DNA content, Fluorescent DNA Quantitation kit); settings: vector-expressing cells; 1 nM E2; 72 h; not statistically significant
Description: as §1
Cell proliferation. Fifty thousand cells/well were plated in 6-well plates. After the appropriate treatment, the DNA content of the cells, an indirect measure of proliferation, was determined using a Fluorescent DNA Quantitation kit (Bio-Rad Laboratories, Hercules, Calif.). In brief, cells were harvested, sonicated in 0.1×TEN assay buffer (Bio-Rad Laboratories) for 5 s, and incubated with a Hoechst dye mixture (BioRad Laboratories) for 1 h. Total DNA was measured using Fluoroscan Ascent FL (Thermo Fisher Scientific, Waltham, Mass.) at an excitation wavelength of 360 nm and an emission wavelength of 460 nm.

C[C@]12CC[C@@H]3c4ccc(O)cc4CC[C@H]3[C@@H]1CC[C@@H]2O [E2, 17β-estradiol]
effect of E2 treatment on motility (MSK-Leuk1 cells [1]): not affected | decrease of apoptosis by exposure to E2 (MSK-Leuk1 cells [2]; CYP1B1 shRNA-expressing cells, P=0.015): 30.1% | decrease of apoptosis by exposure to E2 (MSK-Leuk1 cells [2]; vector-expressing cells, P=0.030): 25.5% | induction of cell proliferation by E2 exposure (MSK-Leuk1 cells [3]): 10%

C[C@]12CC[C@@H]3c4ccc(O)cc4C[C@@H](CCCCCCCCC[S+]([O-])CCCC(F)(F)C(F)(F)F)[C@H]3[C@@H]1CC[C@@H]2O (stereo partly drawn) [fulvestrant]
effect on the E2-mediated decrease in apoptosis (MSK-Leuk1 cells [2]): restored | effect on the E2-mediated decrease in apoptosis (MSK-Leuk1 cells [2]; listed as Fulvestrant): restores
